According to PMC10394672, “Crystal structure of dihydrofolate reductase from the emerging pathogenic fungus Candida auris” (Acta Crystallographica. Section D, Structural Biology, 2023):
pIC50: −log10 of the molar value. In brackets after ≈: the same amount, converted by molar mass. Where two headings read alike, the source gives them in different places.

Legend:
C. albicans = system: T1, C. albicans; experiment: microbe, parasite or virus in culture; set-up: species or system Candida yeast; conditions: Candida albicans, 24 h, 50% growth inhibition end point
T1 construct: SC 5314
Method: (§1) The antifungal activity of DHFR inhibitors was evaluated against C. albicans (SC 5314), C. glabrata (ATCC 2001) and C. auris (CBS 12766) by the broth microdilution technique (CLSI, 2017[▸]). DHFR inhibitors were serially diluted (1:2) in RPMI 1640 medium buffered with 0.165 M 3-(N-morpholino)propanesulfonic acid in 96-well flat-bottom plates and yeast suspension was added to the wells to obtain a final yeast concentration of 0.5–2.5 × 10^3 CFU ml^−1 and final concentrations of DHFR inhibitors in the range 1–500 µg ml^−1. […] Studies were then performed against Candida spp. yeasts, with the addition of two more antifolates: diaveridine (DIA) and pemetrexed (PMX) (Supplementary Table S1). The inhibitory effect of these inhibitors on the fungal growth of C. albicans, C. glabrata and C. auris was tested using the broth microdilution assay. […] (Supplementary Table S1), including C. auris, supporting the lack of affinity seen in the IC50 assay (Table 2 ▸).

C. auris = system: T2, C. auris; experiment: microbe, parasite or virus in culture; set-up: species or system Candida yeast; conditions: Candidozyma auris, 24 h, 50% growth inhibition end point
T2 construct: CBS 12766
Method: as §1

C. glabrata = system: T3, C. glabrata; experiment: microbe, parasite or virus in culture; set-up: species or system Candida yeast; conditions: Nakaseomyces glabratus, 24 h, 50% growth inhibition end point
T3 construct: ATCC 2001
Method: as §1

[1] = molecular target: T4, dihydrofolate reductase (CauDHFR) (Candidozyma auris, UniProt A0A0L0P1H8); experiment: ([…] Å); DSF shift +[…] °C; NADPH-consumption IC50; format: biochemical
T4 construct: gene QG37_02791; His-tag-removed CauDHFR
T4 sequence (A0A0L0P1H8 1-204): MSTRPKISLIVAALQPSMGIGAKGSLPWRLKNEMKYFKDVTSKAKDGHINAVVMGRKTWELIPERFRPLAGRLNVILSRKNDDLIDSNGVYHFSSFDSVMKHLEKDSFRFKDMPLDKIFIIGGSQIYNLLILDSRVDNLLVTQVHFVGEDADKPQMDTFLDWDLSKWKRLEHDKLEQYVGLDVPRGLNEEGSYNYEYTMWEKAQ

## CC1(C)N=C(N)N=C(N)N1c1ccc(Cl)cc1 [CYG, cycloguanil]
C. albicans; read-out: MIC cycloguanil
  MIC: 500 µg/mL (≈ 1990 µM)
C. auris; read-out: MIC cycloguanil
  MIC: > 500 µg/mL
C. glabrata; read-out: MIC cycloguanil
  MIC: 500 µg/mL (≈ 1990 µM)
[1]
  pIC50: 3.40

## CN(Cc1cnc2nc(N)nc(N)c2n1)c1ccc(C(=O)N[C@@H](CCC(=O)O)C(=O)O)cc1 [MTX, methotrexate]
C. albicans; read-out: MIC methotrexate
  MIC: 250 µg/mL (≈ 550 µM)
C. auris; read-out: MIC methotrexate
  MIC: > 500 µg/mL
C. glabrata; read-out: MIC methotrexate
  MIC: > 500 µg/mL

## CCc1nc(N)nc(N)c1-c1ccc(Cl)cc1 [PYR, pyrimethamine]
C. albicans; read-out: MIC pyrimethamine
  MIC: 62.5 µg/mL (≈ 251 µM)
C. auris; read-out: MIC pyrimethamine
  MIC: 125 µg/mL (≈ 503 µM)
C. glabrata; read-out: MIC pyrimethamine
  MIC: 62.5 µg/mL (≈ 251 µM)

## COc1cc(Cc2cnc(N)nc2N)cc(OC)c1OC [TMP, trimethoprim]
C. albicans; read-out: MIC trimethoprim
  MIC: 500 µg/mL (≈ 1720 µM)
C. auris; read-out: MIC trimethoprim
  MIC: > 500 µg/mL
C. glabrata; read-out: MIC trimethoprim
  MIC: 500 µg/mL (≈ 1720 µM)

## COc1ccc(Cc2cnc(N)nc2N)cc1OC [diaveridine]
C. albicans; read-out: MIC diaveridine
  MIC: > 500 µg/mL
C. auris; read-out: MIC diaveridine
  MIC: > 500 µg/mL
C. glabrata; read-out: MIC diaveridine
  MIC: 500 µg/mL (≈ 1920 µM)

## Nc1nc2[nH]cc(CCc3ccc(C(=O)N[C@@H](CCC(=O)O)C(=O)O)cc3)c2c(=O)[nH]1 [pemetrexed]
C. albicans; read-out: MIC pemetrexed
  MIC: 500 µg/mL (≈ 1170 µM)
C. auris; read-out: MIC pemetrexed
  MIC: > 500 µg/mL
C. glabrata; read-out: MIC pemetrexed
  MIC: 500 µg/mL (≈ 1170 µM)
